Columns and labels:
[1] = tested on: IPOHE (Ipomoea hederacea); experiment: Postemergence herbicidal evaluation; assay type: in vivo, (L.) Jacq.; conditions: postemergence
Procedure, shortened: (§1)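 Visual 0–9 injury scores versus control plants, covering stand, vigour, malformation, size, chlorosis and general appearance, taken four to five weeks post-spray and averaged over replicate tests. Plants were sprayed at roughly two weeks old and held on greenhouse benches.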

[2] = tested on: ECHCG (Echinochloa crus-galli); experiment: Postemergence herbicidal evaluation; assay type: in vivo, (L.) Beau; conditions: postemergence
Procedure, shortened: as §1

[3] = tested on: SETVI (Setaria viridis); experiment: Postemergence herbicidal evaluation; assay type: in vivo, (L.) Beau; conditions: postemergence
Procedure, shortened: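 ~2-wk seedlings; spray 0.0040–1.000 kg/ha in 50/50 acetone/water + 0.5% TWEEN 20, 40 psi nozzle. Greenhouse hold; visual 0–9 rating vs control at 4–5 wk; multiple tests averaged.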

[4] = tested on: GLXMAW (Soybean, Williams); experiment: Postemergence herbicidal evaluation; assay type: in vivo, Glycine max, (L.) Merr. cv Williams; conditions: postemergence
Procedure, shortened: as §1

[5] = tested on: ORYSAT (Rice, Tebonnet); experiment: Postemergence herbicidal evaluation; assay type: in vivo, Oryza sativa, (L.) Tebonnet; conditions: postemergence
Procedure, shortened: as §1

[6] = tested on: TRZAWR (Wheat, Winter, cv Riband); experiment: Postemergence herbicidal evaluation; assay type: in vivo, Triticum aestivum; conditions: postemergence
Procedure, shortened: as §1

[7] = tested on: ZEAMX (Corn, Field); experiment: Postemergence herbicidal evaluation; assay type: in vivo, Zea mays, L.; conditions: postemergence
Procedure, shortened: as §1

[8] = tested on: ABUTH (Abutilon theophrasti); experiment: Preemergence herbicidal evaluation; assay type: in vivo, Medic.; conditions: rated 4-5 weeks after treatment
[9] = tested on: AMBEL (Ambrosia artemisifolia); experiment: Preemergence herbicidal evaluation; assay type: in vivo, L.; conditions: rated 4-5 weeks after treatment
Procedure, shortened: (§2)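 Steps: mix seeds with potting soil; plant on ~1 inch soil per cup; spray compound in aqueous acetone; hold on greenhouse benches with routine watering; rate 0–9 visually against control at 4–5 weeks.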

[10] = tested on: CASOB (Cassia obtusifolia); experiment: Preemergence herbicidal evaluation; assay type: in vivo, L.; conditions: rated 4-5 weeks after treatment
Procedure, shortened: as §2

[11] = tested on: CHEAL (Chenopodium album); experiment: Preemergence herbicidal evaluation; assay type: in vivo, L.; conditions: rated 4-5 weeks after treatment
Procedure, shortened: as §2

[12] = tested on: ECHCG (Echinochloa crus-galli); experiment: Preemergence herbicidal evaluation; assay type: in vivo, (L.) Beau; conditions: rated 4-5 weeks after treatment
Procedure, shortened: as §2

[13] = tested on: SETVI (Setaria viridis); experiment: Preemergence herbicidal evaluation; assay type: in vivo, (L.) Beau; conditions: rated 4-5 weeks after treatment
Procedure, shortened: as §2

[14] = tested on: ORYSAT (Rice, Tebonnet); experiment: Preemergence herbicidal evaluation; assay type: in vivo, Oryza sativa, (L.) Tebonnet; conditions: rated 4-5 weeks after treatment
[15] = tested on: TRZAWR (Wheat, Winter, cv Riband); experiment: Preemergence herbicidal evaluation; assay type: in vivo, Triticum aestivum; conditions: rated 4-5 weeks after treatment
Procedure, shortened: as §2

[16] = tested on: ECHORC (Echinochloa oryzoides); experiment: Flooded paddy, preemergence weed control; assay type: in vivo, Echinochloa oryzoides (Ard.) Fritsch.; conditions: rated 3-4 weeks after treatment, 0-9 rating scale
Procedure, shortened: (§3)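 Visual 0–9 ratings versus controls scored stand, vigor, malformation, size, chlorosis and overall appearance. Plants grew from seeds or propagating organs sown 0.5 cm deep in silt loam, with water held 1.5–3 cm above the soil for the whole test under greenhouse care.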

[17] = tested on: CYPSE (Cyperus serotinus); experiment: Flooded paddy, preemergence weed control; assay type: in vivo, Rottb.; conditions: rated 3-4 weeks after treatment, 0-9 rating scale
Procedure, shortened: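 Herbicidal effect was scored visually on a 0–9 scale against an untreated control 3–4 weeks after treatment. Compounds were applied preemergence as 50/50 v/v aqueous/acetone mixtures into flood water (1.5–3 cm deep over silt loam), at roughly 0.0080 to 0.1250 kg/ha active ingredient.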

[18] = tested on: MOOVA (Monochoria vaginalis); experiment: Flooded paddy, preemergence weed control; assay type: in vivo, Presl.; conditions: rated 3-4 weeks after treatment, 0-9 rating scale
Procedure, shortened: as §3

SMILES: CC1CC(C)(C)OC(c2nsc3ccc(-n4c(=O)cc(C(F)(F)F)n(C)c4=O)cc23)O1 (centres unmarked) [Compound 55, 1-methyl-6-(trifluoromethyl)-3-[3-(4,4,6-trimethyl-m-dioxan-2-yl)-1,2-benzisothiazol-5-yl]uracil]
- IPOHE herbicidal rating ([1]; rate 0.0320 kg/ha): 9.0
- IPOHE herbicidal rating ([1]; rate 0.0620 kg/ha): 9.0
- ECHCG herbicidal rating ([2]; rate 0.0320 kg/ha): 1.0
- ECHCG herbicidal rating ([2]; rate 0.0620 kg/ha): 1.0
- SETVI herbicidal rating ([3]; rate 0.0320 kg/ha): 1.0
- SETVI herbicidal rating ([3]; rate 0.0620 kg/ha): 1.0
- GLXMAW herbicidal rating ([4]; rate 0.0320 kg/ha): 4.5
- GLXMAW herbicidal rating ([4]; rate 0.0620 kg/ha): 5.0
- ORYSAT herbicidal rating ([5]; rate 0.0320 kg/ha): 3.0
- ORYSAT herbicidal rating ([5]; rate 0.0620 kg/ha): 4.5
- TRZAWR herbicidal rating ([6]; rate 0.0320 kg/ha): 3.0
- TRZAWR herbicidal rating ([6]; rate 0.0620 kg/ha): 5.0
- ZEAMX herbicidal rating ([7]; rate 0.0320 kg/ha): 4.5
- ZEAMX herbicidal rating ([7]; rate 0.0620 kg/ha): 5.0
- Preemergence herbicidal rating ABUTH ([8]; Rate 0.0620 kg/ha): 9.0
- Preemergence herbicidal rating ABUTH ([8]; Rate 0.1250 kg/ha): 9.0
- Preemergence herbicidal rating ABUTH ([8]; Rate 0.2500 kg/ha): 9.0
- Preemergence herbicidal rating AMBEL ([9]; Rate 0.0620 kg/ha): 9.0
- Preemergence herbicidal rating AMBEL ([9]; Rate 0.1250 kg/ha): 9.0
- Preemergence herbicidal rating AMBEL ([9]; Rate 0.2500 kg/ha): 9.0
- Preemergence herbicidal rating CASOB ([10]; Rate 0.0620 kg/ha): 3.5
- Preemergence herbicidal rating CASOB ([10]; Rate 0.1250 kg/ha): 7.5
- Preemergence herbicidal rating CASOB ([10]; Rate 0.2500 kg/ha): 7.0
- Preemergence herbicidal rating CHEAL ([11]; Rate 0.0620 kg/ha): 9.0
- Preemergence herbicidal rating CHEAL ([11]; Rate 0.1250 kg/ha): 9.0
- Preemergence herbicidal rating CHEAL ([11]; Rate 0.2500 kg/ha): 9.0
- Preemergence herbicidal rating ECHCG ([12]; Rate 0.0620 kg/ha): 9.0
- Preemergence herbicidal rating ECHCG ([12]; Rate 0.1250 kg/ha): 9.0
- Preemergence herbicidal rating ECHCG ([12]; Rate 0.2500 kg/ha): 9.0
- Preemergence herbicidal rating SETVI ([13]; Rate 0.0620 kg/ha): 9.0
- Preemergence herbicidal rating SETVI ([13]; Rate 0.1250 kg/ha): 9.0
- Preemergence herbicidal rating SETVI ([13]; Rate 0.2500 kg/ha): 9.0
- Preemergence herbicidal rating ORYSAT ([14]; Rate 0.0620 kg/ha): 7.5
- Preemergence herbicidal rating ORYSAT ([14]; Rate 0.1250 kg/ha): 9.0
- Preemergence herbicidal rating ORYSAT ([14]; Rate 0.2500 kg/ha): 9.0
- Preemergence herbicidal rating TRZAWR ([15]; Rate 0.0620 kg/ha): 8.0
- Preemergence herbicidal rating TRZAWR ([15]; Rate 0.1250 kg/ha): 9.0
- Preemergence herbicidal rating TRZAWR ([15]; Rate 0.2500 kg/ha): 9.0
- herbicidal rating, ECHORC ([16]; rate 0.0080 kg/ha): 5.0
- herbicidal rating, ECHORC ([16]; rate 0.0320 kg/ha): 7.5
- herbicidal rating, ECHORC ([16]; rate 0.1250 kg/ha): 9.0
- herbicidal rating, CYPSE ([17]; rate 0.0320 kg/ha): 9.0
- herbicidal rating, CYPSE ([17]; rate 0.1250 kg/ha): 9.0
- herbicidal rating, MOOVA ([18]; rate 0.0320 kg/ha): 9.0
- herbicidal rating, MOOVA ([18]; rate 0.1250 kg/ha): 9.0

SMILES: Cn1c(C(F)(F)F)cc(=O)n(-c2ccc3snc(C4OC(C)(C)C(C)(C)O4)c3c2)c1=O [Compound 56, 1-methyl-3-[3-(4,4,5,5-tetramethyl-1,3-dioxolan-2-yl)-1,2-benzisothiazol-5-yl]-6-(trifluoromethyl)uracil]
- IPOHE herbicidal rating ([1]; rate 0.0320 kg/ha): 9.0
- IPOHE herbicidal rating ([1]; rate 0.0620 kg/ha): 9.0
- ECHCG herbicidal rating ([2]; rate 0.0320 kg/ha): 2.0
- ECHCG herbicidal rating ([2]; rate 0.0620 kg/ha): 4.0
- SETVI herbicidal rating ([3]; rate 0.0320 kg/ha): 2.0
- SETVI herbicidal rating ([3]; rate 0.0620 kg/ha): 4.0
- GLXMAW herbicidal rating ([4]; rate 0.0320 kg/ha): 6.0
- GLXMAW herbicidal rating ([4]; rate 0.0620 kg/ha): 6.5
- ORYSAT herbicidal rating ([5]; rate 0.0320 kg/ha): 3.5
- ORYSAT herbicidal rating ([5]; rate 0.0620 kg/ha): 4.5
- TRZAWR herbicidal rating ([6]; rate 0.0320 kg/ha): 3.5
- TRZAWR herbicidal rating ([6]; rate 0.0620 kg/ha): 4.5
- ZEAMX herbicidal rating ([7]; rate 0.0320 kg/ha): 5.0
- ZEAMX herbicidal rating ([7]; rate 0.0620 kg/ha): 5.5
- Preemergence herbicidal rating ABUTH ([8]; Rate 0.0620 kg/ha): 9.0
- Preemergence herbicidal rating ABUTH ([8]; Rate 0.1250 kg/ha): 9.0
- Preemergence herbicidal rating ABUTH ([8]; Rate 0.2500 kg/ha): 9.0
- Preemergence herbicidal rating AMBEL ([9]; Rate 0.0620 kg/ha): 9.0
- Preemergence herbicidal rating AMBEL ([9]; Rate 0.1250 kg/ha): 9.0
- Preemergence herbicidal rating AMBEL ([9]; Rate 0.2500 kg/ha): 9.0
- Preemergence herbicidal rating CASOB ([10]; Rate 0.0620 kg/ha): 4.5
- Preemergence herbicidal rating CASOB ([10]; Rate 0.1250 kg/ha): 5.5
- Preemergence herbicidal rating CASOB ([10]; Rate 0.2500 kg/ha): 9.0
- Preemergence herbicidal rating CHEAL ([11]; Rate 0.0620 kg/ha): 9.0
- Preemergence herbicidal rating CHEAL ([11]; Rate 0.1250 kg/ha): 9.0
- Preemergence herbicidal rating CHEAL ([11]; Rate 0.2500 kg/ha): 9.0
- Preemergence herbicidal rating ECHCG ([12]; Rate 0.0620 kg/ha): 9.0
- Preemergence herbicidal rating ECHCG ([12]; Rate 0.1250 kg/ha): 9.0
- Preemergence herbicidal rating ECHCG ([12]; Rate 0.2500 kg/ha): 9.0
- Preemergence herbicidal rating SETVI ([13]; Rate 0.0620 kg/ha): 8.5
- Preemergence herbicidal rating SETVI ([13]; Rate 0.1250 kg/ha): 9.0
- Preemergence herbicidal rating SETVI ([13]; Rate 0.2500 kg/ha): 9.0
- Preemergence herbicidal rating ORYSAT ([14]; Rate 0.0620 kg/ha): 5.0
- Preemergence herbicidal rating ORYSAT ([14]; Rate 0.1250 kg/ha): 6.0
- Preemergence herbicidal rating ORYSAT ([14]; Rate 0.2500 kg/ha): 6.0
- Preemergence herbicidal rating TRZAWR ([15]; Rate 0.0620 kg/ha): 6.0
- Preemergence herbicidal rating TRZAWR ([15]; Rate 0.1250 kg/ha): 6.0
- Preemergence herbicidal rating TRZAWR ([15]; Rate 0.2500 kg/ha): 7.0
- herbicidal rating, ECHORC ([16]; rate 0.0080 kg/ha): 9.0
- herbicidal rating, ECHORC ([16]; rate 0.0320 kg/ha): 9.0
- herbicidal rating, ECHORC ([16]; rate 0.1250 kg/ha): 9.0
- herbicidal rating, CYPSE ([17]; rate 0.0080 kg/ha): 0.0
- herbicidal rating, CYPSE ([17]; rate 0.0320 kg/ha): 5.5
- herbicidal rating, CYPSE ([17]; rate 0.1250 kg/ha): 9.0
- herbicidal rating, MOOVA ([18]; rate 0.0080 kg/ha): 9.0
- herbicidal rating, MOOVA ([18]; rate 0.0320 kg/ha): 9.0
- herbicidal rating, MOOVA ([18]; rate 0.1250 kg/ha): 9.0
